Experimental data published in patent US8865657B2, “Compositions and methods for inactivating or suppressing inflammatory cells” (New York University, priority 2005, dated 2014).
Where two headings read alike, the source gives them in different places.

How the values were obtained:
Kupffer cells [1] = assay: Zymosan-induced respiratory burst (ROS) in Kupffer cells, luminol- or lucigenin-enhanced chemiluminescence
Description: Liver cell isolation. Liver cells were isolated from female Sprague Dawley rats (230-250 g). Livers were perfused with collagenase as described by Neufeld (Neufeld DS (1997) Isolation of rat liver hepatocytes. Methods in Molecular Biology, Vol 75: Basic Cell Culture Protocols 75: 145-151). Subsequently, liver cells were purified by a combined differential and Percoll gradient centrifugation using a Sorvall HS4 swinging bucket rotor (Smedsrod B, Pertoft H (1985) Preparation of pure hepatocytes and reticuloendothelial cells in high yield from a single rat liver by means of Percoll centrifugation and selective adherence. J.Leukocyte Biol 38: 213-230). After filtration through a 100-μm mesh polypropylene filter (Spectra/Mesh; Spectrum, Laguna Hills, Calif.), the cell suspension was centrifuged for 5 minutes at 50 g resulting in a hepatocyte-enriched pellet and a nonparenchymal cell-enriched supernatant. The nonparenchymal cell-containing supernatant was saved. The pellet was resuspended in ice-cold phosphate-buffered saline (PBS) and mixed in an equal volume of PBS-buffered isotonic Percoll. The gradient was centrifuged for 10 minutes at 50 g. The pellet was resuspended in PBS, centrifuged again, and the final pellet was resuspended in RPMI 1640 medium containing 10% FCS. The nonparenchymal cell-enriched supernatants were centrifuged for 15 minutes at 900 g. The pellet was resuspended in ice-cold PBS, layered over a 2-cushion Percoll gradient (Smedsrod B, Pertoft H (1985) Preparation of pure hepatocytes and reticuloendothelial cells in high yield from a single rat liver by means of Percoll centrifugation and selective adherence. J.Leukocyte Biol 38: 213-230) and centrifuged for 30 minutes at 900 g. The intermediate zone, containing mostly liver endothelial cells, and the bottom cushion, containing mostly Kupffer cells, were saved, mixed with PBS, and centrifuged for 15 minutes at 900 g. The pellet was resuspended in PBS with 1% FCS and the cells further separated into various fractions by centrifugal counterflow elutriation (Knook D L, Sleyster E C (1976) Separation of Kupffer and endothelial cells of the rat liver by centrifugal elutriation. Exp Cell Res 99: 444-449) using the Beckman Coulter JE-5.0 elutriator rotor supplied with a Sanderson chamber (Beckman Coulter, Palo Alto, Calif. USA). The cell suspension was introduced into the elutriator at a flow rate of 12 ml/min, and the elutriator speed set to 3250 rpm. Endothelial cells were obtained at a 32 ml/min flow rate, whereas Kupffer cells were collected at 70 ml/min. The cells were centrifuged at 200 g and resuspended in RPMI-1640 medium containing 10% fetal calf serum. The cell purity and viability were above 95% as determined by peroxidase stain and trypan blue exclusion.
Cell culture. Kupffer cells were seeded into 96-well microtiter plates (0.25×10^6 cells/well) or 24-well plates (1.0×10^6 cells/well). Endothelial cells were plated on 24-well plates (1.5×10^6 cells/well), which had been previously coated with type I collagen (Sigma, St. Louis, Mo.). […] All types of cells were cultivated in RPMI 1640 medium supplemented with 10% fetal calf serum (FCS), 25 mM HEPES, and antibiotics (100 U/ml penicillin G and 100 μg/ml streptomycin sulfate) at 37° C. in 5% CO2. Nonadherent cells were removed after 1 h by replacing medium, and the cells were cultured in the same medium for 18 h and then in RPMI-1640 without FCS for 6 h.
Cell treatment. To study the effect of CSP on cell signaling, the cells were incubated with different concentration of CSP for 0-90 min at 37° C. in 5% CO2. Before use, CSP was dialyzed extensively with 150 mM NaCl, 10 mM HEPES, pH 7.4 and diluted in culture medium.

Kupffer cells [2] = assay: cAMP radioimmunoassay, intracellular cAMP in Kupffer cells; type: cell-based, rat
Description: Liver cell isolation. […] The nonparenchymal cell-containing supernatant was saved.
Cell culture. […] HepG2 cells were used on day 3 after plating.
Cell treatment. […] Role of calcium and cyclic AMP. […] J Immunol 174: 2981-2989). […] IBMX was dissolved in dimethyl sulphoxide (DMSO).
cAMP radioimmunoassay. For cAMP determination, liver cell cultures were incubated in culture medium without FCS at 37° C. for 0-90 min. The cultures were then placed on ice, and the reaction was stopped by aspiration of the incubation medium followed by the addition of 1 ml of ice cold 65% (vol/vol) ethanol. The cells were scraped into Eppendorf tubes and centrifuged at 10000 g for 10 min at 4° C. The supernatants were dried in SC110 Speedvac Concentrator (Savant, Farmingdale, N.Y.) at room temperature, and the dried extracts were dissolved in assay buffer for cAMP determination with cAMP [^125I] Direct Biotrak Assay from Amersham Biosciences (Piscataway, N.J.), according to the instructions of the manufacturer. Samples were analyzed with a Beckman LS 6000 scintillation counter. The cAMP level in each sample was normalized to the protein concentration and expressed as fmol/μg of protein. Ethanol-precipitated cell pellets were diluted with 0.15 M NaOH and the protein concentration was measured with the Micro BCA Protein Assay Kit (Pierce Chemical Co., Rockford, Ill.) according to manufacturer's instructions.

Nc1ncnc2c1ncn2C1CCCO1 (stereo not drawn) [SQ 22,536, 9-(Tetrahydro-2-furanyl)-9H-purin-6-amine]
effect on the inhibition of the zymosan-induced respiratory burst by sporozoites (Kupffer cells [1]; 100 μM SQ 22,536 with P. yoelii sporozoites): abrogated the inhibitory effect

CO[C@@H]1[C@@H]2OP(=O)(O)OC[C@H]2O[C@H]1n1c(Sc2ccc(Cl)cc2)nc2c(N)ncnc21 [8-CPT-2-Me-cAMP, 8-[4-chlorophenylthio]-2′-O-methyladenosine-3′,5′-cAMP]
effect on zymosan-induced ROS formation (Kupffer cells [1]): inhibited

CC(C)Cn1c(=O)n(C)c(=O)c2[nH]cnc21 [IBMX, 3-isobutyl-1 methylxanthine, reference compound]
effect on the CSP-induced generation of cAMP (Kupffer cells [2]; added 10 min before 50 nM CSP (30 min), RAP 500 nM): did not reduce | inhibition at 1000 µM (Kupffer cells [1]; Rattus norvegicus, read-out: inhibition of the zymosan-induced respiratory burst): 67%

CCCC(=O)Nc1ncnc2c1ncn2[C@@H]1O[C@@H]2COP(=O)(O)O[C@H]2[C@H]1O [6-MB-cAMP, N6-monobutyryladenosine-3′,5′-cAMP]
effect on zymosan-induced ROS formation (Kupffer cells [1]; 3 mM, pretreated 40 minutes, luminol-enhanced chemiluminescence): had no effect

C[C@]12N[C@H](Cc3ccccc31)c1ccccc12 [MK-801]
effect on the CSP-mediated inhibition of the respiratory burst (Kupffer cells [1]): had no effect

[O-][Cl+2]([O-])O [Chlorate, sodium chlorate, reference compound]
inhibition at 20000 µM (Kupffer cells [2]; Rattus norvegicus, read-out: inhibition of the CSP-induced generation of cAMP): 20%

Cl.Cl.O=S(=O)(NCCNCC=Cc1ccc(Br)cc1)c1cccc2cnccc12 [H-89, N-[2-(p-Bromocinnamylamino)ethyl]-5-isoquinolinesulfonamide dihydrochloride]
effect on the CSP-mediated inhibition of the respiratory burst (Kupffer cells [1]): failed to prevent

CCCC(=O)Nc1ncnc2c1ncn2[C@@H]1O[C@@H]2COP(=O)(O)O[C@H]2[C@H]1OC(=O)CCC [db-cAMP, dibutyryl cAMP]
inhibition of the zymosan-induced respiratory burst (Kupffer cells [1]; 1 mM IBMX or 1 mM db-cAMP, luminol-enhanced chemiluminescence): 22%
